# Laboratory results from patent US8906826B2, “Herbicidal compositions comprising 4-amino-3-chloro-5-fluoro-6-(4-chloro-2-fluoro-3-methoxyphenyl) pyridine-2-carboxylic acid or a derivative thereof and imidazolinones” (Dow AgroSciences, LLC, priority 2012, dated 2014).
# Assays:
# CYPRO = assay: In-water applied, transplanted paddy rice weeds (Example II); assay type: in vivo, Cyperus rotundus L.
# Method: Weed seeds or nutlets of the desired test plant species were planted in puddled soil (mud) prepared by mixing a shredded, non-sterilized mineral soil (50.5 percent silt, 25.5 percent clay, and 24 percent sand, with a pH of about 7.6 and an organic matter content of about 2.9 percent) and water at a 1:1 volumetric ratio. The prepared mud was dispensed in 365 mL aliquots into 16-ounce (oz.) non-perforated plastic pots with a surface area of 86.59 square centimeters (cm^2) leaving a headspace of 3 centimeters (cm) in each pot. Mud was allowed to dry overnight prior to planting or transplanting. Rice seeds were planted in Sun Gro MetroMix® 306 planting mixture, which typically has a pH of about 6.0 to about 6.8 and an organic matter content of about 30 percent, in plastic plug trays. Seedlings at the second or third leaf stage of growth were transplanted into 860 mL of mud contained in 32-oz. non-perforated plastic pots with a surface area of 86.59 cm^2 4 days prior to herbicide application. The paddy was created by filling the headspace of the pots with 2.5 to 3 cm of water. When required to ensure good germination and healthy plants, a fungicide treatment and/or other chemical or physical treatment was applied. The plants were grown for 4-22 days in a greenhouse with an approximate 14 h photoperiod which was maintained at about 29° C. during the day and about 26° C. during the night. Nutrients were added as Osmocote® (19:6:12, N:P:K+minor nutrients) at 2 g per 16-oz. pot and 4 g per 32-oz. pot. […]
# Treatment requirements for each compound or herbicidal component were calculated based upon the rates being tested, the concentration of active ingredient or acid equivalent in the formulation, an application volume of 2 mL per component per pot, and an application area of 86.59 cm^2 per pot.
# For formulated compounds, a measured amount was placed in an individual 100 or 200 mL glass vial and was dissolved in a volume of 1.25% (v/v) Agri-Dex® crop oil concentrate to obtain application solutions. […]
# SASKR = assay: Postemergence herbicidal activity in cereal crops, greenhouse (Example V); assay type: in vivo, Salsola iberica L.
# Method: (§1) Seeds of the desired test plant species were planted in Sun Gro MetroMix® 306 planting mixture, which typically has a pH of 6.0 to 6.8 and an organic matter content of about 30 percent, in plastic pots with a surface area of 103.2 square centimeters (cm^2). When required to ensure good germination and healthy plants, a fungicide treatment and/or other chemical or physical treatment was applied. The plants were grown for 7-36 days in a greenhouse with an approximate 14 hour photoperiod which was maintained at about 18° C. during the day and about 17° C. during the night. Nutrients and water were added on a regular basis and supplemental lighting was provided with overhead metal halide 1000-Watt lamps as necessary. The plants were employed for testing when they reached the second or third true leaf stage.
# (§2) Treatments consisted of the benzyl ester of 4-amino-3-chloro-5-fluoro-6-(4-chloro-2-fluoro-3-methoxy-phenyl)pyridine-2-carboxylic acid (Compound A), formulated as an SC, a second cereal herbicide alone and then both in combination.
# (§3) Other herbicidal components were applied on an acid equivalent basis and include acetolactate synthase (ALS)-inhibiting herbicides (imidazolinone chemical class) imazamethabenz-methyl formulated as Assert®. Spray solutions of the second cereal herbicide and experimental compound mixtures were prepared by adding the stock solutions to the appropriate amount of dilution solution to form 12 mL spray solution with active ingredients in two- and three-way combinations. […]
# (§4) The treated plants and control plants were placed in a greenhouse as described above and watered by sub-irrigation to prevent wash-off of the test compounds. After 20-22 days, the condition of the test plants as compared with that of the control plants was determined visually and scored on a scale of 0 to 100 percent where 0 corresponds to no injury and 100 corresponds to complete kill. […]
# CHEAL = assay: as above; assay type: in vivo, Chenopodium album L.
# Method: as §1, §2, §3, §4
# PAPRH = assay: as above; assay type: in vivo, Papaver rhoeas L.
# Method: as §1, §2, §3, §4
# SINAR = assay: as above; assay type: in vivo, Sinapis arvensis L.
# Method: as §1, §2, §3, §4
# CIRAR = assay: as above; assay type: in vivo, Cirsium arvense (L.) Scop.
# Method: as §1, §2, §3, §4
# VERPE = assay: as above; assay type: in vivo, Veronica persica Poir.
# Method: as §1, §2, §3, §4
# [1] = Compound A Benzyl Ester 2 gae/ha
# [2] = Compound A Benzyl Ester 4 gae/ha
SMILES,Visual Weed Control (%) - 22 DAA CYPRO Obs (CYPRO; Compound A Acid 10.6 gae/ha),Visual Weed Control (%) - 22 DAA CYPRO Obs (CYPRO; Compound A Acid 21.2 gae/ha),Visual Weed Control (%) - 21 DAA SASKR Obs (SASKR; [1]),Visual Weed Control (%) - 21 DAA SASKR Obs (SASKR; [2]),Visual Weed Control (%) - 21 DAA CHEAL Obs (CHEAL; [1]),Visual Weed Control (%) - 21 DAA CHEAL Obs (CHEAL; [2]),Visual Weed Control (%) - 21 DAA PAPRH Obs (PAPRH; [1]),Visual Weed Control (%) - 21 DAA PAPRH Obs (PAPRH; [2]),Visual Weed Control (%) - 21 DAA SINAR Obs (SINAR; [1]),Visual Weed Control (%) - 21 DAA SINAR Obs (SINAR; [2]),Visual Weed Control (%) - 21 DAA CIRAR Obs (CIRAR; [1]),Visual Weed Control (%) - 21 DAA CIRAR Obs (CIRAR; [2]),Visual Weed Control (%) - 21 DAA VERPE Obs (VERPE; [1]),Visual Weed Control (%) - 21 DAA VERPE Obs (VERPE; [2])
"COc1c(Cl)ccc(-c2nc(C(=O)O)c(Cl)c(N)c2F)c1F [Compound A Acid, 4-amino-3-chloro-6-(4-chloro-2-fluoro-3-methoxyphenyl)-5-fluoropyridine-2-carboxylic acid]",0%,40%,,,,,,,,,,,,
"COc1c(Cl)ccc(-c2nc(C(=O)OCc3ccccc3)c(Cl)c(N)c2F)c1F [Compound A Benzyl Ester, benzyl ester of 4-amino-3-chloro-5-fluoro-6-(4-chloro-2-fluoro-3-methoxy-phenyl)pyridine-2-carboxylic acid]",,,10%,60%,50%,60%,20%,70%,60%,70%,10%,20%,0%,5%
